In patent US4946954A, “Platinum pharmaceutical agents” (priority 1989, dated 1990):

Tests used:
murine P388 leukemia [1] = assay: Example XXXVII: antileukemic activity against murine P388 leukemia, mean survival days and percentage increased life span; format: in vivo; conditions: 10 mg/kg i.p. on day 1; 1×10^6 P388 cells i.p.; CD2F1 male mice; in sterile saline
Protocol: The compound 2-[[[3,4,6-tri-O-acetyl-2-(N-acetylamino)-2-deoxy-alpha-D-glucopyranosyl]amino]thioxomethyl]amino]butane-dioato-O,O']-[1,2-cyclohexanediammine-N,N']platinum (II) and cisplatin were tested against murine P388 leukemia. The murine P388 leukemia system is known to be sensitive to cisplatin. The leukemia was maintained intraperitoneally in female DBA/2 mice.
Prior to administration, cisplatin was dissolved in sterile saline (0.85% sodium chloride). The compound 2-[[[3,4,6-tri-O-acetyl-2-(N-acetylamino)-2-deoxy-alpha-D-glucopyranosyl]amino]-thioxomethyl]amino]butanedioato-O,O']-[1,2-cyclohexanediammine-N,N']platinum (II) was dissolved in sterile water at 4° C. immediately prior to administration.
Each compound was administered intraperitoneally to groups of CD2F1 male mice on day 1 after intraperitoneal implantation of 1×10^6 P388 leukemia cells. P388 antileukemic activity for each compound was assessed by mean survival days and percentage increased life span (%ILS).
%ILS is calculated as follows: […]
(§1) wherein T is the mean survival days of the treated mice and C is the mean survival days of the untreated mice.

murine P388 leukemia [2] = assay: Example XXI: antileukemic activity against murine P388 leukemia, mean survival days and percentage increased life span; format: in vivo; conditions: 10 mg/kg i.p. on day 1; 1×10^6 P388 cells i.p.; CD2F1 male mice; 5% ethanol, 95% sterile water
Protocol: The cyclohexane-1,2-diammine-platinum(II) salt of 2-(acetylamino)-3,4,6-tri-O-acetyl-2-deoxyglucopyranosyl-amino-thioxomethyl-imino diacetic acid and cisplatin were tested against murine P388 leukemia. The murine P388 leukemia system is known to be sensitive to cisplatin. The leukemia was maintained intraperitoneally in female DBA/2 mice.
Prior to administration, cisplatin was dissolved in ethanol. The solution was then adjusted to 5% ethanol, 95% sterile water The cyclohexane-1,2-diammine-platinum(II) salt of 2-(acetylamino)-3,4,6-tri-O-acetyl-2-deoxyglucopyranosylamino-thioxomethyl-imino diacetic acid was dissolved in sterile water at 4 degrees celsius immediately prior to administration.
Each compound was administered intraperitoneally to groups of CD2F1 male mice on day 1 after intraperitoneal implantation of 1×10^6 P388 leukemia cells. P388 antileukemic activity for each compound was assessed by mean survival days and percentage increased life span (% ILS).
% ILS is calculated as follows: […]
as §1

P388 cells = assay: Example XXXIX: Murine Antitumor Activity, P388 Antitumor Activity % ILS; format: in vivo, murine; male CD2F1 mice; conditions: vehicle mean survival 8.5 days
Protocol: (§2) Murine Antitumor Activity
(§3) *P388 cells implanted intraperitoneally (i.p.) into male CD2F1 mice
(§4) on Day 0. Drugs (in 5% dextrose) administered i.p. on Day 1. Increase in
(§5) life span (% ILS) was calculated compared to a group of mice receiving
(§6) drug vehicle, with a mean survival of 8.5 days.
(§7) +compound was administered as a suspension.

male CD2F1 mice = assay: Example XXXIX: Deaths Due to Drug Toxicity; format: in vivo
Protocol: as §2, §3, §4, §5, §6, §7

[3] = 150 mg/kg single dose i.p. on Day 1, in 5% dextrose
[4] = 200 mg/kg single dose i.p. on Day 1, in 5% dextrose
[5] = 250 mg/kg single dose i.p. on Day 1, administered as a suspension

N.N.[Cl][Pt][Cl] [cisplatin, cis-diammine-dichloroplatinum (II)]
% ILS (percentage increased life span) (murine P388 leukemia [1]): 96%
Mean Survival (murine P388 leukemia [1]): 15.7 days
% ILS (percentage increased life span) (murine P388 leukemia [2]): 83%
Mean Survival (murine P388 leukemia [2]): 17.4 days

Cis-R,R-(acetamidomalonato-O,O')(1,2-cyclohexanediamine-N,N')platinum (II) [AMP]
P388 Antitumor Activity: % ILS (P388 cells; [3]): 115%
P388 Antitumor Activity: % ILS (P388 cells; [4]): 93%
Deaths Due to Drug Toxicity (male CD2F1 mice; [4]): 1/10
Deaths Due to Drug Toxicity (male CD2F1 mice; 250 mg/kg single dose i.p. on Day 1, in 5% dextrose): 5/10

Cis-R,R-(formamidomalonato-O,O')(1,2-cyclohexanediamine-N,N') platinum (II) [FMP]
P388 Antitumor Activity: % ILS (P388 cells; 150 mg/kg single dose i.p. on Day 1, administered as a suspension): 84%
P388 Antitumor Activity: % ILS (P388 cells; 200 mg/kg single dose i.p. on Day 1, administered as a suspension): 115%
P388 Antitumor Activity: % ILS (P388 cells; [5]): 81%
Deaths Due to Drug Toxicity (male CD2F1 mice; [5]): 2/10

cis-R,R-[2-[(pentalacetylgluconyl)imino]propanedioato-O,O'](1,2-cyclohexanediammine-N,N')platinum(II) [R,R-AG-AMP]
P388 Antitumor Activity: % ILS (P388 cells; [3]): 75%
Deaths Due to Drug Toxicity (male CD2F1 mice; [3]): 0/10
